Results on 25 compounds are retold here after ChEMBL document CHEMBL1697681, “Predicting phospholipidosis using machine learning” (Mol Pharm, 2010).

The series concerns Phospholipidosis. Nature of the series: Literature-mined public compounds from Lowe et al phospholipidosis modelling dataset.
Consider `CCC(c1ccc(OCCN(CC)CC)cc1)C(CC)c1ccc(OCCN(CC)CC)cc1` (stereo not given) [CORALGIL], for which the Phospholipidosis result is “Positive”.

Consider `CN1CCN(C(c2ccccc2)c2ccccc2)CC1` [CYCLIZINE], for which the Phospholipidosis entry is on record as “Positive”. With `CC(=O)O[C@]1(C(C)=O)CC[C@H]2[C@@H]3C=C(Cl)C4=CC(=O)[C@@H]5C[C@@H]5[C@]4(C)[C@H]3CC[C@@]21C` [CYPROTERONE ACETATE] the entry was “Negative”; with `O=C1CN(/N=C/c2ccc(-c3ccc([N+](=O)[O-])cc3)o2)C(O)=N1` [DANTROLENE], “Negative”; with `CC(=O)N(O)CCCCCNC(=O)CCC(=O)N(O)CCCCCNC(=O)CCC(=O)N(O)CCCCCN` [DEFEROXAMINE], “Negative”. In the case of `CN(C)[C@@H]1C(O)=C(C(N)=O)C(=O)[C@@]2(O)C(O)=C3C(=O)c4c(O)ccc(Cl)c4[C@@H](O)[C@H]3C[C@@H]12` [DEMECLOCYCLINE], the Phospholipidosis result is “Negative”. The entry for `CNCCCN1c2ccccc2CCc2ccccc21` [DESIPRAMINE] is “Positive”; for `CN1C(=O)CN=C(c2ccccc2)c2cc(Cl)ccc21` [DIAZEPAM] it is “Negative”; for `NC[C@@H]1CC[C@@H](N)[C@@H](O[C@H]2[C@H](O)[C@@H](O[C@H]3O[C@H](CO)[C@@H](O)[C@H](N)[C@H]3O)[C@H](N)C[C@@H]2N)O1` [DIBEKACIN] it is “Positive”. As for `O=C(O)Cc1ccccc1Nc1c(Cl)cccc1Cl` [DICLOFENAC], the Phospholipidosis entry is “Negative”.

On to `O=C(O)c1cc(-c2ccc(F)cc2F)ccc1O` [DIFLUNISAL], for which the Phospholipidosis result is on record as “Negative”.

For the compound `CC(C)N(CCC(CCN1CCCCC1)(C(N)=O)c1ccccc1Cl)C(C)C` (stereo not given) [DISOBUTAMIDE], the Phospholipidosis entry is given as “Positive”. With `COc1cc2c(cc1OC)C(=O)C(CC1CCN(Cc3ccccc3)CC1)C2` (stereo not given) [DONEPEZIL] the entry was “Negative”; with `CCN1CC(CCN2CCOCC2)C(c2ccccc2)(c2ccccc2)C1=O` (stereo not given) [DOXAPRAM], “Negative”. Turning to `COc1cccc2c1C(=O)c1c(O)c3c(c(O)c1C2=O)C[C@@](O)(C(=O)CO)C[C@@H]3O[C@H]1C[C@H](N)[C@H](O)[C@H](C)O1` [DOXORUBICIN], the Phospholipidosis entry is listed as “Negative”. `C[C@H]1c2cccc(O)c2C(=O)C2=C(O)[C@]3(O)C(=O)C(C(N)=O)=C(O)[C@@H](N(C)C)[C@@H]3[C@@H](O)[C@@H]21.O` [DOXYCYCLINE]: the Phospholipidosis result is “Negative”.

Take `CC[C@H]1CN2CCc3cc(OC)c(OC)cc3[C@@H]2C[C@@H]1C[C@H]1NCCc2cc(OC)c(OC)cc21` [EMETINE]: the Phospholipidosis result is listed as “Positive”.

Take `CC[C@H]1OC(=O)[C@H](C)[C@@H](O[C@H]2C[C@@](C)(OC)[C@@H](O)[C@H](C)O2)[C@H](C)[C@@H](O[C@@H]2O[C@H](C)C[C@H](N(C)C)[C@H]2O)[C@](C)(O)C[C@@H](C)C(=O)[C@H](C)[C@@H](O)[C@]1(C)O` [ERYTHROMYCIN]: the Phospholipidosis result was “Positive”.

As to `C#C[C@]1(O)CC[C@H]2[C@@H]3CCc4cc(O)ccc4[C@H]3CC[C@@]21C` [ETHINYL ESTRADIOL], the Phospholipidosis result is recorded as “Negative”. With `CCSCC[C@H](N)C(=O)O` [ETHIONINE], the Phospholipidosis entry was “Negative”. Turning to `CCOC(=O)C1N=C(c2ccccc2F)c2cc(Cl)ccc2NC1=O` (stereo not given) [ETHYL LOFLAZEPATE], the Phospholipidosis entry is “Positive”.

As for `COc1cc([C@@H]2c3cc4c(cc3[C@@H](O[C@@H]3O[C@@H]5CO[C@@H](C)O[C@H]5[C@H](O)[C@H]3O)[C@H]3COC(=O)[C@H]23)OCO4)cc(OC)c1O` [ETOPOSIDE], the Phospholipidosis entry is “Negative”. As for `NC(N)=Nc1nc(CSCCC(N)=NS(N)(=O)=O)cs1` [FAMOTIDINE], the Phospholipidosis entry is recorded as “Negative”. `NC(=O)OCC(COC(N)=O)c1ccccc1` [FELBAMATE]: the Phospholipidosis entry is “Negative”.

For `CCNC(C)Cc1cccc(C(F)(F)F)c1` (stereo not given) [FENFLURAMINE], the Phospholipidosis entry is “Positive”.
